Measurements taken from ChEMBL document CHEMBL3576782, “Bacillusin A, an Antibacterial Macrodiolide from Bacillus amyloliquefaciens AP183” (J Nat Prod, 2015).
Values after ≈ are worked out from the molar mass of the structure shown. Active and inactive are the calls of the source. The calls are words filed in the database; no cut-off is given here.

What was measured:
Enterococcus faecium [1] = experiment: Antibacterial activity against vancomycin-resistant Enterococcus faecium ATCC 700221 assessed as growth inhibition using fresh sample in DMSO by CLSI method; type: functional, organism-based
Staphylococcus aureus [2] = experiment: Antibacterial activity against Staphylococcus aureus ATCC 29213 assessed as growth inhibition using fresh sample in DMSO by CLSI method; type: functional, organism-based
Candida albicans = experiment: Antifungal activity against Candida albicans ATCC 90028 at 20 ug/ml by CLSI method; type: functional, organism-based
Enterococcus faecalis [3] = experiment: Antibacterial activity against Enterococcus faecalis ATCC 29212 assessed as growth inhibition using fresh sample in DMSO by CLSI method; type: functional, organism-based
Staphylococcus aureus [4] = experiment: Bactericidal activity against methicillin-resistant Staphylococcus aureus EAMC30 using fresh sample in DMSO after 24 to 48 hrs by CLSI method; type: functional
[5] = Chemical stability in acetonitrile after 1 week by LC-MS analysis; type: physicochemical; conditions: 168 h
Enterococcus faecalis [6] = experiment: Bactericidal activity against Enterococcus faecalis ATCC 51299 using fresh sample in DMSO after 24 to 48 hrs by CLSI method; type: functional
Enterococcus faecalis [7] = experiment: Antibacterial activity against Enterococcus faecalis ATCC 51299 assessed as growth inhibition using fresh sample in DMSO by CLSI method; type: functional, organism-based
Staphylococcus aureus [8] = experiment: Bactericidal activity against Staphylococcus aureus ATCC 29213 using fresh sample in DMSO after 24 to 48 hrs by CLSI method; type: functional
Staphylococcus aureus [9] = experiment: Bactericidal activity against methicillin-resistant Staphylococcus aureus ATCC 33591 using fresh sample in DMSO after 24 to 48 hrs by CLSI method; type: functional
Staphylococcus aureus [10] = experiment: Antibacterial activity against methicillin-resistant Staphylococcus aureus EAMC30 assessed as growth inhibition using fresh sample in DMSO by CLSI method; type: functional, organism-based
Staphylococcus aureus [11] = experiment: Antibacterial activity against methicillin-resistant Staphylococcus aureus ATCC 33591 assessed as growth inhibition using fresh sample in DMSO by CLSI method; type: functional, organism-based
Enterococcus faecium [12] = experiment: Bactericidal activity against vancomycin-resistant Enterococcus faecium ATCC 700221 using fresh sample in DMSO at 20 ug/ml after 24 to 48 hrs by CLSI method; type: functional, organism-based
Enterococcus faecalis [13] = experiment: Bactericidal activity against Enterococcus faecalis ATCC 29212 using fresh sample in DMSO after 24 to 48 hrs by CLSI method; type: functional
Staphylococcus aureus [14] = experiment: Bactericidal activity against methicillin-resistant Staphylococcus aureus ATCC 33591 using fresh sample in DMSO at 100 ug/ml after 24 to 48 hrs by CLSI method; type: functional, organism-based
Staphylococcus aureus [15] = experiment: Antibacterial activity against methicillin-resistant Staphylococcus aureus ATCC 33591 assessed as growth inhibition using fresh sample in DMSO at 100 ug/ml by CLSI method; type: functional, organism-based
Enterococcus faecalis [16] = experiment: Bactericidal activity against Enterococcus faecalis ATCC 51299 using fresh sample in DMSO at 100 ug/ml after 24 to 48 hrs by CLSI method; type: functional, organism-based

## COc1cc(O)cc2c1C(=O)OC(CC(C)O)CC(O)C/C=C/C(O)CC(O)CC(O)C/C(C)=C/C=C/C=C/C=C/C=C/c1cc(O)cc(OC)c1C(=O)OC(CC(C)O)CC(O)C/C=C/C(O)CC(O)CC(O)C/C(C)=C/C=C/C=C/C=C/C=C/2 (configuration not stated)
Enterococcus faecium [1]
  IC50: 0.1 µg/mL (≈ 0.0835 µM)
  MIC: 0.6 µg/mL (≈ 0.501 µM)
Staphylococcus aureus [2]
  IC50: 0.04 µg/mL (≈ 0.0334 µM)
  MIC: 1.2 µg/mL (≈ 1 µM)
Candida albicans
  Activity: inactive
Enterococcus faecalis [3]
  IC50: 0.2 µg/mL (≈ 0.167 µM)
  MIC: 0.6 µg/mL (≈ 0.501 µM)
Staphylococcus aureus [4]
  MBC: 0.6 µg/mL (≈ 0.501 µM)
[5]
  Stability: Unstable
Enterococcus faecalis [6]
  MBC: 1.2 µg/mL (≈ 1 µM)
Enterococcus faecalis [7]
  IC50: 0.2 µg/mL (≈ 0.167 µM)
  MIC: 0.6 µg/mL (≈ 0.501 µM)
Staphylococcus aureus [8]
  MBC: 2.5 µg/mL (≈ 2.09 µM)
Staphylococcus aureus [9]
  MBC: 1.2 µg/mL (≈ 1 µM)
Staphylococcus aureus [10]
  IC50: < 0.02 µg/mL
  MIC: 0.6 µg/mL (≈ 0.501 µM)
Staphylococcus aureus [11]
  IC50: 0.04 µg/mL (≈ 0.0334 µM)
  MIC: 1.2 µg/mL (≈ 1 µM)
Enterococcus faecium [12]
  Activity: inactive
Enterococcus faecalis [13]
  MBC: 2.5 µg/mL (≈ 2.09 µM)

## COc1cccc(OC)c1C(=O)N[C@@H]1C(=O)N2[C@@H]1SC(C)(C)[C@@H]2C(=O)O [METHICILLIN]
Staphylococcus aureus [2]
  MIC: 3.1 µg/mL (≈ 8.15 µM)
Enterococcus faecalis [3]
  IC50: 15.3 µg/mL (≈ 40.2 µM)
  MIC: 25 µg/mL (≈ 65.7 µM)
Enterococcus faecalis [6]
  MBC: 50 µg/mL (≈ 131 µM)
Staphylococcus aureus [14]
  Activity: inactive
Enterococcus faecalis [7]
  IC50: 14.2 µg/mL (≈ 37.3 µM)
  MIC: 50 µg/mL (≈ 131 µM)
Staphylococcus aureus [8]
  MBC: 12.5 µg/mL (≈ 32.9 µM)
Staphylococcus aureus [10]
  IC50: 10.1 µg/mL (≈ 26.5 µM)
  MIC: 50 µg/mL (≈ 131 µM)
Enterococcus faecalis [13]
  MBC: 50 µg/mL (≈ 131 µM)
Staphylococcus aureus [15]
  growth inhibition (GI): inactive

## CN[C@H](CC(C)C)C(=O)N[C@H]1C(=O)N[C@@H](CC(N)=O)C(=O)N[C@H]2C(=O)N[C@H]3C(=O)N[C@H](C(=O)N[C@H](C(=O)O)c4cc(O)cc(O)c4-c4cc3ccc4O)[C@H](O)c3ccc(c(Cl)c3)Oc3cc2cc(c3O[C@@H]2O[C@H](CO)[C@@H](O)[C@H](O)[C@H]2O[C@H]2C[C@](C)(N)[C@H](O)[C@H](C)O2)Oc2ccc(cc2Cl)[C@H]1O [VANCOMYCIN]
Staphylococcus aureus [2]
  IC50: 0.7 µg/mL (≈ 0.483 µM)
  MIC: 1.6 µg/mL (≈ 1.1 µM)
Enterococcus faecalis [3]
  IC50: 1 µg/mL (≈ 0.69 µM)
  MIC: 1.6 µg/mL (≈ 1.1 µM)
Staphylococcus aureus [4]
  MBC: 0.4 µg/mL (≈ 0.276 µM)
Enterococcus faecalis [7]
  IC50: 3.4 µg/mL (≈ 2.35 µM)
  MIC: 6.2 µg/mL (≈ 4.28 µM)
Staphylococcus aureus [8]
  MBC: 50 µg/mL (≈ 34.5 µM)
Staphylococcus aureus [9]
  MBC: 1.6 µg/mL (≈ 1.1 µM)
Staphylococcus aureus [10]
  IC50: 0.2 µg/mL (≈ 0.138 µM)
  MIC: 0.4 µg/mL (≈ 0.276 µM)
Staphylococcus aureus [11]
  IC50: 0.8 µg/mL (≈ 0.552 µM)
  MIC: 1.6 µg/mL (≈ 1.1 µM)
Enterococcus faecalis [13]
  MBC: 50 µg/mL (≈ 34.5 µM)
Enterococcus faecalis [16]
  Activity: inactive
